In data set [1] the test system is Echinochloa oryzoides (Ard.) Fritsch. As to the kind of experiment: Preemergence weed control under flooded paddy conditions, ECHORC (Watergrass (Calif.)). The class given is in vivo. The settings on record: preemergence, flooded paddy, rated three to four weeks after treatment.
The test system of data set [2] is Oryza sativa, (L.) Tebonnet. As to the kind of experiment: Rice tolerance to post-transplant applications under flooded paddy conditions (Example 187), ORYSAT (Rice, Tebonnet). The settings on record: rated three to four weeks after treatment.
In another data set the test system is Sagittaria pygmaea, L. As to the kind of experiment: Preemergence weed control under flooded paddy conditions, SAGPY (Arrowhead (Pygmaea)). The class given is in vivo. The settings on record: preemergence, flooded paddy, rated three to four weeks after treatment.
For data set [3], the system named is Monochoria vaginalis, Presl. As to the kind of experiment: Preemergence weed control under flooded paddy conditions, MOOVA (Monochoria). To be noted: preemergence, flooded paddy, rated three to four weeks after treatment. The class given is in vivo.
The subject of the next data set is Cyperus iria. As to the kind of experiment: Preemergence weed control under flooded paddy conditions, CYPIR (Rice Flatsedge). It is filed as in vivo. The settings on record: preemergence, flooded paddy, rated three to four weeks after treatment.
The test system of data set [4] is Cyperus serotinus, Rottb. As to the kind of experiment: Preemergence weed control under flooded paddy conditions, CYPSE (Flatsedge). The class given is in vivo. The settings on record: preemergence, rated three to four weeks after treatment.

Consider `Cn1c(C(F)(F)F)cc(=O)n(-c2ccc3snc(C=C(F)Br)c3c2)c1=O` [Example 286, 2,4(1H,3H)-Pyrimidinedione, 3-[3-(2-bromo-2-fluorovinyl)-1,2-benzisothiazol-5-yl]-1-methyl-6-(trifluoromethyl)-], for which the “ECHORC herbicidal effect rating” value in data set [1] (Rate 0.0320 kg/ha) is recorded as 0.0; in data set [1] (Rate 0.0620 kg/ha), 0.0; in data set [1] (Rate 0.1250 kg/ha), 3.0; in data set [1] (Rate 0.2500 kg/ha) it was 8.0. The “ORYSAT herbicidal effect rating” value in data set [2] (Rate 0.0320 kg/ha) is recorded as 0.0; in data set [2] (Rate 0.0620 kg/ha), 0.0; in data set [2] (Rate 0.1250 kg/ha), 1.0; in data set [2] (Rate 0.2500 kg/ha), 2.0. Moreover, the “SAGPY herbicidal effect rating” value in the data set with Sagittaria pygmaea, L. (Rate 0.0320 kg/ha) is recorded as 0.0; in the data set with Sagittaria pygmaea, L. (Rate 0.0620 kg/ha), 0.0; with Sagittaria pygmaea, L. (Rate 0.1250 kg/ha), 0.0; in the data set on Sagittaria pygmaea, L. (Rate 0.2500 kg/ha) it was 0.0. Besides, the “MOOVA herbicidal effect rating” value in data set [3] (Rate 0.0320 kg/ha), in data set [3] (Rate 0.0620 kg/ha), in data set [3] (Rate 0.1250 kg/ha) and in data set [3] (Rate 0.2500 kg/ha) was 9.0 each time. The “CYPIR herbicidal effect rating” value in the data set with Cyperus iria (Rate 0.0320 kg/ha) stood at 3.0; in the data set on Cyperus iria (Rate 0.0620 kg/ha), 7.0; with Cyperus iria (Rate 0.1250 kg/ha) it was 7.0; with Cyperus iria (Rate 0.2500 kg/ha) it was 9.0. Also, the “CYPSE herbicidal effect rating” value in data set [4] (Rate 0.0320 kg/ha), in data set [4] (Rate 0.0620 kg/ha), in data set [4] (Rate 0.1250 kg/ha) and in data set [4] (Rate 0.2500 kg/ha) was 0.0 throughout.
With `Cn1c(C(F)(F)F)cc(=O)n(-c2ccc3snc(C=C(Cl)Cl)c3c2)c1=O` [Example 287, 2,4(1H,3H)-Pyrimidinedione, 3-[3-(2,2-dichlorovinyl)-1,2-benzisothiazol-5-yl]-1-methyl-6-(trifluoromethyl)-], the “ECHORC herbicidal effect rating” value worked out at 0.0 in data set [1] (Rate 0.0320 kg/ha), 2.0 in data set [1] (Rate 0.0620 kg/ha), 5.0 in data set [1] (Rate 0.1250 kg/ha) and 7.0 in data set [1] (Rate 0.2500 kg/ha). The “ORYSAT herbicidal effect rating” value in data set [2] (Rate 0.0320 kg/ha) is 0.0; in data set [2] (Rate 0.0620 kg/ha) it was 3.0; in data set [2] (Rate 0.1250 kg/ha), 3.0; in data set [2] (Rate 0.2500 kg/ha) it was 5.0. In addition, the “SAGPY herbicidal effect rating” value with Sagittaria pygmaea, L. (Rate 0.0320 kg/ha) stood at 0.0; in the data set on Sagittaria pygmaea, L. (Rate 0.0620 kg/ha), 0.0; with Sagittaria pygmaea, L. (Rate 0.1250 kg/ha) it was 0.0; in the data set on Sagittaria pygmaea, L. (Rate 0.2500 kg/ha), 0.0. Further, the “MOOVA herbicidal effect rating” value in data set [3] (Rate 0.0320 kg/ha), in data set [3] (Rate 0.0620 kg/ha), in data set [3] (Rate 0.1250 kg/ha) and in data set [3] (Rate 0.2500 kg/ha) was 9.0 each time. Moreover, the “CYPIR herbicidal effect rating” value with Cyperus iria (Rate 0.0320 kg/ha) is on record as 0.0; with Cyperus iria (Rate 0.0620 kg/ha), 9.0; with Cyperus iria (Rate 0.1250 kg/ha), 9.0; in the data set on Cyperus iria (Rate 0.2500 kg/ha) it was 9.0. The “CYPSE herbicidal effect rating” value in data set [4] (Rate 0.0320 kg/ha) is given as 0.0; in data set [4] (Rate 0.0620 kg/ha), 0.0; in data set [4] (Rate 0.1250 kg/ha), 0.0; in data set [4] (Rate 0.2500 kg/ha) it was 4.0.
For `Cc1ccc(OCC(=O)NS(=O)(=O)c2sc(C)nc2C)c(-c2nsc3ccc(-n4c(=O)cc(C(F)(F)F)n(C)c4=O)cc23)c1` [Example 288, Acetamide, 2-{{2-{5-[3,6-dihydro-3-methyl-2,6-dioxo-4-(trifluoromethyl)-1(2H)-pyrimidinyl]-1,2-benzisothiazol-3-yl}-p-tolyl}oxy}-N-[(2,4-dimethylthiazol-5-yl)sulfonyl]-], the “ECHORC herbicidal effect rating” value in data set [1] (Rate 0.0320 kg/ha) is 0.0; in data set [1] (Rate 0.0620 kg/ha), 0.0; in data set [1] (Rate 0.1250 kg/ha) it was 4.0; in data set [1] (Rate 0.2500 kg/ha) it was 5.0. For the same molecule, the “ORYSAT herbicidal effect rating” value turned out to be 0.0 in data set [2] (Rate 0.0320 kg/ha), 0.0 in data set [2] (Rate 0.0620 kg/ha), 1.0 in data set [2] (Rate 0.1250 kg/ha) and 2.0 in data set [2] (Rate 0.2500 kg/ha). For the same molecule, the “SAGPY herbicidal effect rating” value was 0.0 with Sagittaria pygmaea, L. (Rate 0.0320 kg/ha); 0.0 with Sagittaria pygmaea, L. (Rate 0.0620 kg/ha); 0.0 in the data set with Sagittaria pygmaea, L. (Rate 0.1250 kg/ha); 0.0 with Sagittaria pygmaea, L. (Rate 0.2500 kg/ha). The “MOOVA herbicidal effect rating” value in data set [3] (Rate 0.0320 kg/ha) was 0.0; in data set [3] (Rate 0.0620 kg/ha), 0.0; in data set [3] (Rate 0.1250 kg/ha), 3.0; in data set [3] (Rate 0.2500 kg/ha), 6.0. The “CYPIR herbicidal effect rating” value in the data set on Cyperus iria (Rate 0.0320 kg/ha) is listed as 0.0; with Cyperus iria (Rate 0.0620 kg/ha), 0.0; with Cyperus iria (Rate 0.1250 kg/ha) it was 4.0; in the data set with Cyperus iria (Rate 0.2500 kg/ha), 6.0. The “CYPSE herbicidal effect rating” value in data set [4] (Rate 0.0320 kg/ha), in data set [4] (Rate 0.0620 kg/ha), in data set [4] (Rate 0.1250 kg/ha) and in data set [4] (Rate 0.2500 kg/ha) was 0.0 throughout.
As to `CCOc1ccc2sc(S(=O)(=O)NC(=O)COc3ccc(C)cc3-c3nsc4ccc(-n5c(=O)cc(C(F)(F)F)n(C)c5=O)cc34)nc2c1` [Example 289, Acetamide, 2-{{2-{5-[3,6-dihydro-3-methyl-2,6-dioxo-4-(trifluoromethyl)-1(2H)-pyrimidinyl]-1,2-benzisothiazol-3-yl}-p-tolyl}oxy}-N-[(5-ethoxybenzothiazol-2-yl)sulfonyl]-], the “ECHORC herbicidal effect rating” value in data set [1] (Rate 0.0320 kg/ha) came out at 0.0; in data set [1] (Rate 0.0620 kg/ha), 2.0; in data set [1] (Rate 0.1250 kg/ha), 3.0; in data set [1] (Rate 0.2500 kg/ha), 4.0. For the same molecule, the “ORYSAT herbicidal effect rating” value in data set [2] (Rate 0.0320 kg/ha), in data set [2] (Rate 0.0620 kg/ha), in data set [2] (Rate 0.1250 kg/ha) and in data set [2] (Rate 0.2500 kg/ha) was 0.0 throughout. Moreover, the “SAGPY herbicidal effect rating” value in the data set on Sagittaria pygmaea, L. (Rate 0.0320 kg/ha) was 0.0; with Sagittaria pygmaea, L. (Rate 0.0620 kg/ha) it was 0.0; with Sagittaria pygmaea, L. (Rate 0.1250 kg/ha) it was 0.0; with Sagittaria pygmaea, L. (Rate 0.2500 kg/ha) it was 0.0. Moreover, the “MOOVA herbicidal effect rating” value was determined as 0.0 in data set [3] (Rate 0.0320 kg/ha), 0.0 in data set [3] (Rate 0.0620 kg/ha), 9.0 in data set [3] (Rate 0.1250 kg/ha) and 9.0 in data set [3] (Rate 0.2500 kg/ha). The “CYPIR herbicidal effect rating” value came out at 0.0 with Cyperus iria (Rate 0.0320 kg/ha), 0.0 with Cyperus iria (Rate 0.0620 kg/ha), 9.0 in the data set on Cyperus iria (Rate 0.1250 kg/ha) and 9.0 with Cyperus iria (Rate 0.2500 kg/ha). Moreover, the “CYPSE herbicidal effect rating” value in data set [4] (Rate 0.0320 kg/ha), in data set [4] (Rate 0.0620 kg/ha), in data set [4] (Rate 0.1250 kg/ha) and in data set [4] (Rate 0.2500 kg/ha) was 0.0 throughout.
Consider `Cc1ccc(OCC(=O)NS(=O)(=O)c2sc3ccc(Cl)cc3c2C)c(-c2nsc3ccc(-n4c(=O)cc(C(F)(F)F)n(C)c4=O)cc23)c1` [Example 290, Acetamide, N-[(5-chloro-3-methylbenzo[b]thien-2-yl)sulfonyl]-2-{{2-{5-[3,6-dihydro-3-methyl-2,6-dioxo-4-(trifluoromethyl)-1(2H)-pyrimidinyl]-1,2-benzisothiazol-3-yl}-p-tolyl}oxy}-], for which the “ECHORC herbicidal effect rating” value in data set [1] (Rate 0.0320 kg/ha) came out at 0.0; in data set [1] (Rate 0.0620 kg/ha), 0.0; in data set [1] (Rate 0.1250 kg/ha) it was 3.0; in data set [1] (Rate 0.2500 kg/ha) it was 7.0. Further, the “ORYSAT herbicidal effect rating” value in data set [2] (Rate 0.0320 kg/ha), in data set [2] (Rate 0.0620 kg/ha), in data set [2] (Rate 0.1250 kg/ha) and in data set [2] (Rate 0.2500 kg/ha) was 0.0 throughout. Moreover, the “SAGPY herbicidal effect rating” value in the data set with Sagittaria pygmaea, L. (Rate 0.0320 kg/ha) came out at 0.0; in the data set with Sagittaria pygmaea, L. (Rate 0.0620 kg/ha) it was 0.0; in the data set on Sagittaria pygmaea, L. (Rate 0.1250 kg/ha), 0.0; in the data set with Sagittaria pygmaea, L. (Rate 0.2500 kg/ha) it was 0.0. Also, the “MOOVA herbicidal effect rating” value in data set [3] (Rate 0.0320 kg/ha) was 0.0; in data set [3] (Rate 0.0620 kg/ha), 7.0; in data set [3] (Rate 0.1250 kg/ha) it was 7.0; in data set [3] (Rate 0.2500 kg/ha) it was 7.0. Moreover, the “CYPIR herbicidal effect rating” value in the data set on Cyperus iria (Rate 0.0320 kg/ha), with Cyperus iria (Rate 0.0620 kg/ha), in the data set on Cyperus iria (Rate 0.1250 kg/ha) and in the data set with Cyperus iria (Rate 0.2500 kg/ha) was 6.0 in each case. Moreover, the “CYPSE herbicidal effect rating” value in data set [4] (Rate 0.0320 kg/ha), in data set [4] (Rate 0.0620 kg/ha), in data set [4] (Rate 0.1250 kg/ha) and in data set [4] (Rate 0.2500 kg/ha) was 0.0 throughout.
